Molecules are shown by their SMILES.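 Following 48 hours of exposure in 96-well plates, responses at five concentrations were used to interpolate endpoints linearly. GI50 = concentration required for 50% inhibition of growth. TGI: total growth inhibition.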 A value given as a limit tells only on which side of the number the result lay.

What all share (experiment): growth of human tumour cells (NCI), 48 h
The subject of assay [1] is MOLT-4 leukemia.
Assay [2] deals with SNB-75 CNS.
In assay [3] the test system is HCT-15 colon.
Assay [4] deals with UACC-62 melanoma.
Assay [5] relates to RPMI-8226 leukemia.
The subject of assay [6] is SK-MEL-2 melanoma.
Assay [7] concerns SF-539 CNS.
Assay [8] relates to TK-10 renal.
In assay [9] the test system is OVCAR-8 ovarian.

Regarding `COc1c2c(c(O)c3c4c(c(C)cc13)C1OC3(C(OC)OC5CC(C)(O)C(OC6CC(C)(O)C(O)C(C)O6)C(C)O5)OC1C(OC)(O4)C31CO1)C(=O)C(O)CC2OC1CC(C)(O)C(OC(C)=O)C(C)O1` (stereo unspecified), the TGI in [1] is 0.102 µM; in assay [2], less than 0.01 µM; in assay [3] it was 1.58 µM; in assay [4], less than 0.01 µM; in assay [5] it was less than 0.01 µM; in assay [6] it was less than 0.01 µM. Besides, the figures for the TGI in assay [7] and in assay [8] were less than 0.01 µM and 18.6 µM, respectively.

`Cc1nc(Nc2ccc(Cl)cc2)sc1C(=O)Nc1cccc2c(=O)[nH][nH]c(=O)c12`: the TGI in assay [1] was 50.4 µM; in assay [2], 83.4 µM; in [3] it was 71.3 µM; in assay [4] it was 16.4 µM; in [6], more than 100 µM; in assay [9], more than 100 µM. The TGI in assay [7] and in assay [8] was more than 100 µM throughout.

Consider `O=C(O)C1CC2C=CCC(C2)C1` (stereo unspecified), for which the TGI in assay [1], in assay [2], in [3], in assay [4], in [5] and in [6] was more than 100 µM each time. Besides, the TGI in assay [9] and in [8] was more than 100 µM each time.

For `CCNC(=O)COc1ccc(Cl)c(C)c1`, the TGI in [1], in assay [2], in [3], in [4], in [5] and in [6] was more than 100 µM throughout. Moreover, the TGI in assay [7] and in assay [8] was more than 100 µM throughout.

As for `c1ccc(N2CCN(CCN3CCc4c([nH]c5ccccc45)C3c3cccnc3)CC2)cc1` (stereo unspecified), the TGI in assay [1] was more than 100 µM; in [2], 9.7 µM; in assay [3] it was more than 100 µM; in [4] it was more than 100 µM; in assay [5], more than 100 µM; in assay [9], more than 100 µM. Moreover, the TGI in assay [7] and in assay [8] was more than 100 µM in each case.

As for `COc1ccccc1/C=C(\NC(=O)c1ccccc1)c1nc2ccccc2[nH]1`, the TGI was more than 100 µM in assay [1]; more than 100 µM in [2]; more than 100 µM in assay [3]; more than 100 µM in assay [4]; 51.7 µM in assay [5]; more than 100 µM in assay [6]. Further, the TGI in assay [9], in assay [7] and in assay [8] was more than 100 µM each time.

For the molecule `C=C(c1ccccc1)c1cc2c(=O)[nH]ccc2n1C`, the TGI was more than 100 µM in assay [1]; 45.6 µM in assay [2]; more than 100 µM in assay [3]; more than 100 µM in [4]; more than 100 µM in [5]; 58.3 µM in [6]. Moreover, the TGI in [9] and in assay [8] was more than 100 µM throughout.

As for `COc1cccc(C=NC23CC4CC(CC(C4)C2)C3)c1`, the TGI in assay [1], in assay [2], in assay [3], in assay [4], in assay [5] and in [6] was more than 100 µM throughout. For the same molecule, the TGI in assay [9], in assay [7] and in assay [8] was more than 100 µM each time.

Consider `Nc1ccccc1SC(/C=C/NNC1=NC(c2ccccc2)C(c2ccccc2)=NN1)c1ccccc1` (stereo unspecified), for which the TGI was 15.7 µM in [1]; 17.8 µM in assay [2]; 32 µM in [3]; 24.1 µM in assay [4]; 10.1 µM in assay [5]; 33 µM in assay [6]. Moreover, the TGI in assay [9] amounted to 49 µM; in assay [7] it was 25.9 µM; in [8], 33.3 µM.

Consider `Cc1cc(O)c2c(c1)OC1(C)CCC3C(C)(C)CCCC34COC2C14` (stereo unspecified), for which the TGI in [1] was determined as 27.4 µM; in assay [4] it was 34.8 µM; in assay [9] it was 30.9 µM; in [7], 23.8 µM.

As for `CCOC(=O)NN1C(=O)C(=P(c2ccccc2)(c2ccccc2)c2ccccc2)C(C(=O)OC)=C1C`, the TGI in assay [1], in [2], in assay [3], in assay [4], in assay [5] and in [6] was more than 100 µM throughout. Moreover, the TGI in assay [9], in assay [7] and in [8] was more than 100 µM in each case.

Consider `COC(=O)C1=C(O)c2cc(OC)c(OC)c(OC)c2C(c2ccc3c(c2)OCO3)[C@@H]1C(=O)OC` (stereo partly specified), for which the TGI in assay [1], in assay [2], in assay [3], in assay [4], in [5] and in [6] was more than 100 µM each time. For the same molecule, the TGI in [9] was more than 100 µM; in assay [7] it was 5.52 µM; in assay [8] it was more than 100 µM.

As for `N#C/C(=C/C=C/c1cccc(Cl)c1)S(=O)c1ccccc1` (stereo unspecified), the GI50 in [1] was 0.307 µM; in assay [2], 1.2 µM; in assay [3], 0.197 µM; in assay [4] it was 1.14 µM; in assay [5] it was 0.339 µM; in [6], 1.62 µM. The GI50 was 0.256 µM in assay [9], 0.281 µM in [7] and 0.359 µM in assay [8]. Further, the TGI in assay [1] was 2.28 µM; in [2], 3.82 µM; in assay [3] it was 0.56 µM; in assay [4] it was 2.69 µM; in assay [5], 1 µM; in assay [6] it was 3.66 µM. The TGI in [9] stood at 0.629 µM; in assay [7], 0.882 µM; in assay [8] it was 1.32 µM.

`COC(OC)c1cccnc1C`: the TGI in assay [1], in assay [2], in assay [3], in [4], in assay [6] and in assay [9] was more than 100 µM throughout. The TGI in assay [7] and in assay [8] was more than 100 µM each time.

As to `O=C(Cc1nc2ccccc2s1)C(=O)Nc1cccc(C(F)(F)F)c1`, the TGI in assay [1], in assay [2], in assay [3], in assay [4], in [6] and in assay [9] was more than 100 µM each time. The TGI in assay [7] and in [8] was more than 100 µM in each case.

The values above are taken from PubChem BioAssay (NCI).
